{"source": "patent US9879235B2", "about": "“Wheat plants having increased resistance to imidazolinone herbicides” (University of Saskatchewan, priority 2001, dated 2018)", "key": {"[1]": {"test_system": "EM2 line in Einkorn background", "assay": "Field evaluation of herbicide injury, EM2 line", "assay_type": "in vivo, Triticum monococcum", "conditions": "for overall crop injury: three rates of imazamox", "method": "(§1) Approximately 15,000 seeds of the Triticum monococcum spring habit accession “TM23” was treated with EMS. The method used was: (1) presoak seed in water for four hours, (2) treat with 0.3% EMS for 16 hours, (3) rinse in water for 8 hours, (4) air-dry for four hours, and (5) plant the seed. Some of the harvested seed was further increased without selection for tolerance to imidazolinone herbicides. The harvested seed was planted and treated with 40 g/ha of imazamox. A total of 120 kg of seed was planted, resulting in approximately 2.4 million plants treated, assuming a kernel weight of 35 mg and 70% seedling emergence. The generation of seed screened ranged from M2 to M5, with over 72% of seed at least M3. Five plants were identified as tolerant, designated EM1 through EM5, and transplanted to a greenhouse for seed production. EM2 was increased under imidazolinone herbicide selection prior to initial field testing (Example 4).\n(§2) The EM2 line tolerant to imazamox (Example 1) was evaluated at a single field location for various agronomic characteristics that could be affected by herbicide injury. The 1998 data are means of two replications. Yield data from 1999 and 2000 are means of four replications. The other data from 1999 are means of two replications.\n(§3) The EM2 line was evaluated for overall crop injury at three rates of imazamox, three times during the growing season."}, "[2]": {"test_system": "line derived from the cross of 15A and 11A", "assay": "Seedling injury rating, three-gene line", "assay_type": "in vivo, wheat", "method": "(§4) Four genotypes were tested for tolerance to two different rates of imazamox. Genotypes included an FS4 only line, BW755; Tea1 15A, previously described as having two independent loci for tolerance to Imi-herbicides; a double-haploid derived line of EM2+FS4, and a line derived from the cross of 15A and 11A, through conventional bulk selection of the most tolerant plants over successive generations at increasing rates of imazamox. Rates of imazamox included 200 and 600 grams per hectare. Seedling injury of the 18 to 25 plants per treatment per genotype was rated on a per plant basis using five categories ranging from death to no injury."}, "[3]": {"test_system": "susceptible durum line used as a check", "assay": "Tolerance test, susceptible durum check", "assay_type": "in vivo, T. turgidum ssp durum", "conditions": "80 g/h of imazamox"}, "BW755 (FS4 only line)": {"test_system": "BW755 (FS4 only line)", "assay": "Seedling injury rating, one-gene line", "assay_type": "in vivo, wheat", "conditions": "200 and 600 grams per hectare", "method": "as §4"}, "[4]": {"test_system": "susceptible hexaploid check / susceptible wheat plants", "assay": "Tolerance test, susceptible hexaploid check", "assay_type": "in vivo, T. aestivum", "from_the_text": "In all the following discussion, the application rate of the imidazolinone herbicide imazamox that was used in the inheritance studies was 20 grams per hectare.\n(§5) The breeding history of the lines tested was previously described (Example 2). […] The doubled haploid derived line P00.45, composed of EM2 in a hexaploid background, was tolerant to 20 g/ha imazamox as a parental check in allelism studies described in Example 3; all plants of the susceptible hexaploid check were killed at that rate."}, "[5]": {"test_system": "BC1F2 plants of Crocus*2/EMIMI", "assay": "Herbicide treatment of BC1F2 plants (Crocus x EMIMI)", "assay_type": "in vivo, T. aestivum x T. monococcum", "conditions": "20 g/ha of imazamox, 24 plants treated", "from_the_text": "(§6) EMIMI is the designation of the T. monococcum EM2 source parent. Crocus is the designation of the T. aestivum ssp aestivum parent used. 605 florets of crocus were pollinated with EMIMI pollen, resulting in 84 F1 seed. 38,409 florets of the F1 plants were pollinated using Crocus pollen, resulting in 2 embryos which were embryo-rescued. The resultant BC1F1 plants were selfed to BC1F2 and treated with 20 g/ha of imazamox. […] Resistant plants were crossed by the bread wheat variety Tea1, representing the 3rd dose of bread wheat. Plants of the resultant line, with a pedigree of Crocus*2/EMIMI//CDC Tea1/3/ were crossed with either AC Elsa or AC Superb and coded respectively, 98PH8 (Elsa cross) and 98PH9 (Superb cross), 98PH8 was crossed an additional six times with AC Elsa and 98PH8 was crossed an additional six times with AC Superb. Two populations were coded as follows: • P00.35=98PH8/6*Elsa=Crocus*2/EM2//CDC Tea1/3/7*AC Elsa • P00.45=98PH9/6*Superb=Crocus*2/EM2//CDC Tea1/3/7*AC Superb. Segregation of the backcross-derived plants in both populations fit an expected 1:1 tolerant:susceptible single gene model when treated with 20 g/h of imazamox. […] Doubled haploids were produced from each population using the maize pollination method. Seven resistant DH lines were obtained from P00.35 and 78 resistant DH lines were obtained from P00.45."}, "[6]": {"test_system": "backcross-derived plants in populations P00.35 and P00.45", "assay": "Segregation of backcross-derived plants P00.35 and P00.45", "assay_type": "in vivo, T. aestivum", "conditions": "20 g/h of imazamox; single heterozygous tolerance gene", "from_the_text": "as §6"}, "[7]": {"test_system": "double-haploid derived line of EM2+FS4", "assay": "Seedling injury rating, two-gene line EM2+FS4", "assay_type": "in vivo, wheat", "method": "as §4"}, "[8]": {"test_system": "F2 population of Crocus*2/EM2//CDC Tea1/3/2*AC Superb crossed by AC Avonlea", "assay": "Herbicide selection in F2 of EM2 conversion x AC Avonlea", "assay_type": "in vivo, T. aestivum x T. turgidum", "conditions": "at least a 20 g/h rate of imazamox", "method": "(§7) T. aestivum was used as the bridging species to transfer the EM2 gene from T. monococcum to T. turgidum. In each generation, plants were treated with at least a 20 g/h rate of imazamox prior to selecting plants as parents. An intermediate T. aestivum conversion with the pedigree “Crocus*2/EM2//CDC Tea1/3/2*AC Superb” tolerant to imazamox was crossed by the durum line AC Avonlea. The resultant F1 plants were selfed to produce an F2 population, from which 52/390 plants were identified as resistant (no injury from herbicide application). Some of these were used as females and crossed by AC Avonlea. The resultant BC1F1 plants were again crossed by AC Avonlea. For the subsequent two generations, AC Avonlea was used as the female. The resultant line was designated 00DIMI#17 and had the pedigree: AC Avonlea*2/3/Crocus*2/EM2//CDC Tea1/3/2*AC Superb//3*AC Avonlea. This line was selfed to the F2, and F2 plants treated with 40 g/h of imazamox. Resistant F2 plants were advanced to the F4 generation."}, "[9]": {"test_system": "EMS-treated Triticum monococcum accession TM23", "assay": "Selection of tolerant plants after EMS mutagenesis", "assay_type": "in vivo", "conditions": "40 g/ha of imazamox, approximately 2.4 million plants treated", "method": "as §1"}, "[10]": {"test_system": "Einkorn check (non-herbicide tolerant)", "assay": "Field evaluation of herbicide injury, Einkorn check", "assay_type": "in vivo, Triticum monococcum", "method": "as §2, §3"}, "[11]": {"test_system": "00DIMI#17 (EM2 in durum background)", "assay": "Tolerance of EM2 durum recovery 00DIMI#17", "assay_type": "in vivo, T. turgidum ssp durum", "method": "as §7, §5"}, "[12]": {"test_system": "P00.45 (EM2 in a hexaploid background)", "assay": "Tolerance of doubled haploid line P00.45 (parental check in allelism studies)", "assay_type": "in vivo, T. aestivum ssp aestivum", "conditions": "20 g/ha imazamox", "from_the_text": "as §6, with “P00.45. […]” for “P00.45.”"}, "Tea1 15A": {"test_system": "Tea1 15A", "assay": "Seedling injury rating, two-gene line Tea1 15A", "assay_type": "in vivo, wheat", "method": "as §4"}, "[13]": {"conditions": "higher rate, 600 grams per hectare"}, "[14]": {"conditions": "lower rate, 200 grams per hectare"}}, "data": [{"smiles": "COCc1cnc(C2=NC(C)(C(C)C)C(=O)N2)c(C(=O)O)c1", "note": "(centres unmarked) [imazamox]", "values": [{"measurement": "tolerance", "setting": "[1]; 40 g/ha rate, field", "value": "excellent tolerance"}, {"measurement": "overall crop injury", "setting": "[1]; 1999, three times during the growing season", "value": "only slight injury"}, {"measurement": "overall crop injury", "setting": "[1]; 2000", "value": "no injury"}, {"measurement": "plants killed", "setting": "[2]; 200 and 600 grams per hectare", "value": "No plants were killed"}, {"measurement": "seedling injury", "setting": "[2]; 200 and 600 grams per hectare, line still segregating", "value": "some plants exhibiting injury at both rates"}, {"measurement": "plants without injury", "setting": "[2]; highest rate, 600 grams per hectare", "value": "approximately half the plants had no injury"}, {"measurement": "plant kill", "setting": "[3]", "value": "killed"}, {"measurement": "plants killed", "setting": "BW755 (FS4 only line)", "value": "No plants were killed"}, {"measurement": "seedling injury", "setting": "BW755 (FS4 only line)", "value": "injured at both rates"}, {"measurement": "plant kill", "setting": "[4]; 20 g/ha imazamox", "value": "killed"}, {"measurement": "plant kill at the rate of the inheritance studies", "setting": "[4]; 20 grams per hectare", "value": "sufficient to kill"}, {"measurement": "fully resistant plants", "setting": "[5]", "value": 11}, {"measurement": "plants that showed some injury", "setting": "[5]", "value": 7}, {"measurement": "susceptible plants", "setting": "[5]", "value": 6}, {"measurement": "injury of plants scored as tolerant", "setting": "[6]", "value": "sustained some injury"}, {"measurement": "plants killed", "setting": "[7]; 200 and 600 grams per hectare", "value": "No plants were killed"}, {"measurement": "seedling injury", "setting": "[7]; [13]", "value": "all were injured"}, {"measurement": "seedling injury", "setting": "[7]; [14]", "value": "No injury"}, {"measurement": "plants identified as resistant (no injury from herbicide application)", "setting": "[8]", "value": "52/390"}, {"measurement": "plants identified as tolerant", "setting": "[9]", "value": "Five"}, {"measurement": "susceptibility of plants", "setting": "[10]; 40 grams of imazamox, field", "value": "all plants dying"}, {"measurement": "overall crop injury", "setting": "[10]; 2000, non-herbicide tolerant check", "value": "virtually killed"}, {"measurement": "tolerance of plants", "setting": "[11]; F4:5 lines, 80 g/h of imazamox", "value": "all plants were tolerant"}, {"measurement": "susceptible plants", "setting": "[11]; F4:5 lines, 124 plants treated with 80 g/h", "value": "no susceptible plants were found"}, {"measurement": "survival of plants", "setting": "[11]; F4 plants, 80 g/h imazamox", "value": "All 53 F4 plants tested survived"}, {"measurement": "tolerance", "setting": "[12]", "value": "tolerant"}, {"measurement": "plants killed", "setting": "Tea1 15A; 200 and 600 grams per hectare", "value": "No plants were killed"}, {"measurement": "seedling injury", "setting": "Tea1 15A; [13]", "value": "all were injured"}, {"measurement": "seedling injury", "setting": "Tea1 15A; [14]", "value": "No injury"}]}]}
